Values after ≈ are worked out from the molar mass of the structure shown.
Key:
[1] = FRAP, ferric reducing antioxidative power; details: among hop components
Method: (§1) [table] […] The SOAC scores are not included in this figure; ORAC values used are the sum of lipophilic and hydrophilic results. For each assay category, scaling was made logarithmic so that the plot on the chart resembles the associated rating. […] The larger the spatial area, the higher the overall antioxidative capacity. […] Both hydrophilic and lipophilic oxygen radical absorbance capacity (ORAC) assays were carried out at Brunswick Laboratory (Wareham, Mass.) based on the modified ORACfl method reported by Ou et al. (2001 J. Agric. Food Chem. 49: 4619-4626, 2002 J. Agr. Food Chem. 50: 3122-3128). Trolox, a water-soluble vitamin E analog, was used as the calibration standard. The data are expressed as mmole of Trolox equivalents per gram (mmol TE/g). […] Hydroxyl radical ORAC (HOR-AC) is expressed as mmole caffeic acid equivalent per gram (mmol CAE/g). […] The peroxyl nitrite ORAC (NORAC) result is expressed as mmol TE/g. Alpha-tocopherol (vitamin E) was used as the calibration standard, and the singlet oxygen absorbance capacity (SOAC) result is expressed as mmole a-tocopherol equivalent (mmol VtE) per gram (Aubry et al. 1989 J. Org. Chem. 54: 726-728). […] Radical-scavenging activity was measured by the change in absorbance at 517 nm with the DPPH result expressed as mmol TE/g. […] The FRAP result is expressed as mmol TE/g (Ou et al. J. Agric. Food Chem. 49: 4619-4626). […]

[2] = ORAC-Total (ORAClipo + ORAChydro); details: among hop components
Method: In the present work, the ORAC value is expressed as the sum of values of both the water-soluble and fat-soluble parts. Green tea catechins (Polyphenon 60) were used as the control with the highest ORAC value among edible plants. Vitamin C and vitamin E were used as controls for water- and fat-soluble molecules, respectively. Both hydrophilic and lipophilic oxygen radical absorbance capacity (ORAC) assays were carried out at Brunswick Laboratory (Wareham, Mass.) based on the modified ORACfl method reported by Ou et al. (2001 J. Agric. Food Chem. 49: 4619-4626, 2002 J. Agr. Food Chem. 50: 3122-3128). Trolox, a water-soluble vitamin E analog, was used as the calibration standard. The data are expressed as mmole of Trolox equivalents per gram (mmol TE/g). […] Hydroxyl radical ORAC (HOR-AC) is expressed as mmole caffeic acid equivalent per gram (mmol CAE/g). […] The peroxyl nitrite ORAC (NORAC) result is expressed as mmol TE/g. Alpha-tocopherol (vitamin E) was used as the calibration standard, and the singlet oxygen absorbance capacity (SOAC) result is expressed as mmole a-tocopherol equivalent (mmol VtE) per gram (Aubry et al. 1989 J. Org. Chem. 54: 726-728). […] Radical-scavenging activity was measured by the change in absorbance at 517 nm with the DPPH result expressed as mmol TE/g. […] The FRAP result is expressed as mmol TE/g (Ou et al. J. Agric. Food Chem. 49: 4619-4626). […]

[3] = HORAC, hydroxyl radical ORAC; details: among hop components
Method: as §1

[4] = system: K. rhizophila (formerly M. luteus) (ATCC 9341); experiment: Antimicrobial susceptibility, broth dilution; assay type: cell-based; details: Kocuria rhizophila, ATCC9341; lowest concentration required to kill
Method: (§2) The antibacterial effects of seven hops components against five different strains of bacteria involved in primary or secondary skin and soft tissue infections was evaluated, with broth dilution methods. […] Antimicrobial susceptibility testing was performed using a broth dilution method. Gentamicin or ampicillin was used as a control to verify the methodology. A stock solution (20 mg/ml) of the test substance (or vehicle control) was prepared in dimethyl sulfoxide. Serial dilution was done in microwell plates. Reinforced Clostridial Medium was used for P. acnes (ATCC 6919). Three hundreds […] of the test substance was added to the test tube containing P. acnes (10^5 CFU/ml) in 2.7 ml of cultures grown under anaerobic conditions. Mueller-Hinston Broth suitable for culturing S. epidermidis (ATCC 12228), K. rhizophila (formerly M. luteus) (ATCC 9341), and S. aureus (ATCC […]), and Brain Heart Infusion Broth suitable for culturing S. pyogenes (ATCC 14289) were used. A total of […] of the test substance was added to the test tube containing the other microorganisms (10^5 CFU/ml) in 0.9 ml of cultures grown under controlled conditions. […] Samples from those tubes that scored positive was plated onto an agar plate and incubated under controlled conditions.

[5] = system: S. epidermidis (ATCC 12228); experiment: Antimicrobial susceptibility, broth dilution; assay type: cell-based; details: Staphylococcus epidermidis, ATCC12228; lowest concentration required to kill
Method: as §2

S. aureus (ATCC 6538P) = experiment: Antimicrobial susceptibility, broth dilution; assay type: cell-based; details: Staphylococcus aureus, ATCC6538P; lowest concentration required to kill
Method: as §2

S. pyogenes (ATCC 14289) = experiment: Antimicrobial susceptibility, broth dilution; assay type: cell-based; details: Streptococcus pyogenes, ATCC14289; lowest concentration required to kill
Method: as §2

P. acnes (ATCC 6919) = experiment: Antimicrobial susceptibility, broth dilution; assay type: cell-based; details: Cutibacterium acnes, ATCC6919; lowest concentration required to kill
Method: as §2

SOD antioxidant assay = details: among hop components

For `COc1cc(O)c(CC=C(C)C)c(O)c1C(=O)/C=C/c1ccc(O)cc1` [Xanthohumol (7), Xanthohumol], the “rank of quenching activity against ferric ion (FRAP), FIG. 2” value [1] was “highest quenching activity”, the “rank of quenching activity against peroxyl radical (ORAC-total), FIG. 2” value [2] was “highest quenching activity” and the “rank of quenching activity against hydroxyl radical (HORAC), FIG. 2” value [3] was “highest quenching activity”. It also gave an MBC [4] of 10 µg/mL (≈ 28.2 µM), an MBC [5] of 10 µg/mL (≈ 28.2 µM) and an MBC (S. aureus (ATCC 6538P)) of 100 µg/mL (≈ 282 µM). For the same compound, the MBC (S. pyogenes (ATCC 14289)) was 3 µg/mL (≈ 8.46 µM), the MBC (P. acnes (ATCC 6919)) was 3 µg/mL (≈ 8.46 µM) and the “rank of quenching activity against superoxide (SOD), FIG. 2” value (SOD antioxidant assay) was “highest quenching activity”.

Source: patent publication US8142821B2, “Xanthohumol-enriched hop extract” (Flazan GmbH & Co. KG, priority 2007, dated 2012)
